From patent publication US8008061B2, “Trophic conversion of obligate phototrophic algae through metabolic engineering” (Martek Biosciences Corporation, priority 2000, dated 2011)

Columns and labels:
Format in all cases: cell-based
Cylindrotheca fusiformis = assay: Antibiotic sensitivity in diatoms, growth on solid media; conditions: C. fusiformis; for lowest concentration of the antibiotic per ml required for cell death or the highest concentration tested: Table C, 100% I.O. media, 2 weeks of illumination; for lowest concentration of antibiotic per ml required for cell death or the lowest concentration tested: media with reduced salinity, 25% of normal seawater
Procedure: (§1) The diatoms Phaeodactylum tricornutum, Cylindrotheca fusiformis, Cyclotella cryptica and Nitzschia alba were extensively tested for sensitivity to a series of antibiotics for which resistance genes are available, and the lowest concentrations which completely abrogate growth were determined for each antibiotic (Table C). […] These include antibiotics such as G418, Hygromycin, Kanamycin and Spectinomycin, which are routinely utilized for selection of other eukaryotic organisms.
(§2) The effective concentration range of the antibiotic in most cases was lowered by a factor of 10.
(§3) Cells of each diatom species were plated on solid media at salinity equivalents of 25-100% I.O. media, with a gradient of antibiotic concentrations. After 2 weeks of illumination the growth of the cells was assessed and the concentration of antibiotic required for cell death was determined. (Table D).

[1] = test system: Phaeodactylum tricornutum; assay: as above; conditions: P. tricornutum; for lowest concentration of the antibiotic per ml required for cell death or the highest concentration tested: Table C, 100% I.O. media, 2 weeks of illumination
Procedure: as §1, §2, §3

Cyclotella cryptica = assay: as above; conditions: C. cryptica; for lowest concentration of the antibiotic per ml required for cell death or the highest concentration tested: Table C, 100% I.O. media, 2 weeks of illumination
Procedure: as §1, §2
After 2 weeks of illumination the growth of the cells was assessed and the concentration of antibiotic required for cell death was determined. (Table D).

[2] = test system: diatoms Phaeodactylum tricornutum, Cylindrotheca fusiformis, Cyclotella cryptica and Nitzschia alba; assay: Antibiotic sensitivity, statements for the diatoms tested together; conditions: for effect on growth of the diatoms: compared to effectiveness in other eukaryotic organisms; for cell death: 100% I.O. media, the diatoms tested
Procedure: as §1, §2, §3

Nitzschia alba = assay: Antibiotic sensitivity in diatoms, growth on solid media; parameters: unit not given here; conditions: N. alba; Table C; 100% I.O. media; 2 weeks of illumination
Procedure: as §1, §3

Compound	lowest concentration of the antibiotic per ml required for cell death or the highest concentration tested (Cylindrotheca fusiformis)	lowest concentration of the antibiotic per ml required for cell death or the highest concentration tested [1]	lowest concentration of the antibiotic per ml required for cell death or the highest concentration tested (Cyclotella cryptica)	further results
O=C(N[C@H](CO)[C@H](O)c1ccc([N+](=O)[O-])cc1)C(Cl)Cl [Chloramphenicol]	100 mg per ml	200 mg per ml	50 mg per ml	–
CC[C@H]1OC(=O)[C@H](C)[C@@H](O[C@H]2C[C@@](C)(OC)[C@@H](O)[C@H](C)O2)[C@H](C)[C@@H](O[C@@H]2O[C@H](C)C[C@H](N(C)C)[C@H]2O)[C@](C)(O)C[C@@H](C)C(=O)[C@H](C)[C@@H](O)[C@]1(C)O [Erythromycin]	100 mg per ml	100 mg per ml	50 mg per ml	–
CN[C@@H]1[C@@H](O)[C@@H](O[C@@H]2[C@@H](O)[C@H](O[C@H]3O[C@H]([C@@H](C)O)[C@@H](O)[C@H](O)[C@H]3N)[C@@H](N)C[C@H]2N)OC[C@]1(C)O [G418]	>1 mg per ml	–	–	effect on growth of the diatoms [2]: no significant effect on growth or were effective only at very high concentrations
NC[C@H]1O[C@H](O[C@H]2[C@H](O)[C@@H](O[C@H]3O[C@H](CO)[C@@H](O)[C@H](N)[C@H]3O)[C@H](N)C[C@@H]2N)[C@H](O)[C@@H](O)[C@@H]1O [Kanamycin]	>1 mg per ml	>1 mg per ml	>1 mg per ml	–
COc1ccc(C[C@H](N)C(=O)N[C@H]2[C@@H](O)[C@H](n3cnc4c(N(C)C)ncnc43)O[C@@H]2CO)cc1 [Puromycin]	100 mg per ml	200 mg per ml	100 mg per ml	–
CN[C@@H]1[C@H](O)[C@H](NC)[C@H]2O[C@@]3(O)C(=O)C[C@@H](C)O[C@H]3O[C@@H]2[C@H]1O [Spectinomycin]	>1 mg per ml	–	>1 mg per ml	effect on growth of the diatoms [2]: no significant effect on growth or were effective only at very high concentrations
[H]/N=C(/N)N[C@H]1[C@H](O)[C@@H](O)[C@H](O[C@@H]2O[C@@H](C)[C@](O)(C=O)[C@H]2O[C@@H]2O[C@@H](CO)[C@H](O)[C@@H](O)[C@@H]2NC)[C@@H](N/C(N)=N\[H])[C@@H]1O [Streptomycin]	>1 mg per ml	>1 mg per ml	>1 mg per ml	–
Cc1c(N)nc([C@H](CC(N)=O)NC[C@H](N)C(N)=O)nc1C(=O)N[C@H](C(=O)N[C@H](C)[C@@H](O)[C@H](C)C(=O)N[C@H](C(=O)NCCC1=N[C@@H](c2nc(C(=O)NCCCCN=C(N)N)cs2)CS1)[C@@H](C)O)[C@@H](O[C@@H]1O[C@@H](CO)[C@@H](O)[C@H](O)[C@@H]1O[C@H]1O[C@H](CO)[C@@H](O)[C@H](OC(N)=O)[C@@H]1O)c1cnc[nH]1 [Zeocin]	–	–	250 mg per ml	lowest concentration of the antibiotic per ml required for cell death or the highest concentration tested (Nitzschia alba): >250; cell death [2]: resulted in cell death
Bleomycin	>50 mg per ml	–	–	–
Gentamicin	>1 mg per ml	>1 mg per ml	>1 mg per ml	–
Neomycin	>1 mg per ml	–	>1 mg per ml	lowest concentration of the antibiotic per ml required for cell death or the highest concentration tested (Nitzschia alba): >1
Nourseothricin	>250 mg per ml	–	>250 mg per ml	lowest concentration of antibiotic per ml required for cell death or the lowest concentration tested (Cylindrotheca fusiformis): <10 mg (25%) mg per ml; lowest concentration of the antibiotic per ml required for cell death or the highest concentration tested (Nitzschia alba): >250
Phleomycin	–	–	25 mg per ml	lowest concentration of antibiotic per ml required for cell death or the lowest concentration tested (Cylindrotheca fusiformis): <5 mg (25%) mg per ml; lowest concentration of antibiotic per ml required for cell death or the lowest concentration tested ([1]; media with reduced salinity, 25% of normal seawater): <5 mg (25%) mg per ml; lowest concentration of antibiotic per ml required for cell death or the lowest concentration tested (Cyclotella cryptica; media with reduced salinity, 10% of normal seawater): <5 mg (10%) mg per ml; cell death [2]: resulted in cell death
